Laboratory results taken from patent US20220340566A1, “BENZYL AMINE-CONTAINING 5,6-HETEROAROMATIC COMPOUNDS USEFUL AGAINST MYCOBACTERIAL INFECTION” (priority 2019, published 2022).

Legend:
[1] = system: Mycobacterium avium ATCC700898; assay: Determination of IC85 against M. avium (resazurin fluorescence); assay type: cell-based; conditions: Mycobacterium avium, ATCC700898, M. avium ATCC700898, CAMHB medium, 37° C., 3 days incubation then resazurin, fluorescence one day later; read-out: IC85
[2] = Metabolic stability test in pooled human liver microsomes; assay type: in vitro ADME; conditions: human liver microsomes 0.5 mg protein/mL, 1 mmol/L NADPH, 37° C., 30 minutes
Description: Using a commercially available pooled human liver microsomes, a compound of the present invention was reacted for a constant time, a remaining rate was calculated by comparing a reacted sample and an unreacted sample, thereby, a degree of metabolism in liver was assessed.
A reaction was performed (oxidative reaction) at 37° C. for 0 minute or 30 minutes in the presence of 1 mmol/L NADPH in 0.2 mL of a buffer (50 mmol/L Tris-HCl pH 7.4, 150 mmol/L potassium chloride, 10 mmol/L magnesium chloride) containing 0.5 mg protein/mL of human liver microsomes. After the reaction, 50 μL of the reaction solution was added to 100 μL of a methanol/acetonitrile=1/1 (v/v), mixed and centrifuged at 3000 rpm for 15 minutes. The compound of the present invention in the supernatant was quantified by LC/MS/MS or solid phase extraction (SPE)/MS, and a remaining amount of the compound of the present invention after the reaction was calculated, letting a compound amount at 0 minute reaction time to be 100%.

SMILES	IC85 [1] [µM]	MS_h_% (remaining amount of compound after reaction, 0 minute = 100%) [2] [%]
CCc1nc2ccc(C#N)cn2c1C(=O)NCc1ccc(N2CCN(c3ccc(OC(F)(F)F)cc3)[C@@H](C)C2)c(F)c1 [Compound I-1-36]	0.11	79
Cc1nc2ccc(Cl)cn2c1C(=O)NCc1ccc(N2CCN(c3ccc(OC(F)(F)F)cc3)C[C@H]2C)c(F)c1 [Compound I-1-37]	0.036	76
CCc1nc2cc(F)ccn2c1C(=O)NCc1ccc(N2CCN(c3ccc(OC(F)(F)F)cc3)[C@@H](C)C2)c(F)c1 [Compound I-1-38]	0.0013	90
CCc1nc2ccc(Cl)cn2c1C(=O)NCc1ccc(N2C[C@H](C)N(c3ccc(OC(F)(F)F)cc3)C[C@H]2C)c(F)c1 [Compound I-1-39]	0.011	75
Cc1nc2ccc(Cl)cn2c1C(=O)NCc1ccc(N2C[C@H](C)N(c3ccc(OC(F)(F)F)cc3)C[C@H]2C)c(F)c1 [Compound I-1-40]	0.022	89
Cc1ccn2c(C(=O)NCc3ccc(N4C[C@H](C)N(c5ccc(OC(F)(F)F)cc5)C[C@H]4C)c(F)c3)c(C)nc2c1 [Compound I-1-41]	0.18	86
CCc1nc2ccc(Cl)cn2c1C(=O)NCc1ccc(N2CCN(c3ccc(OC(F)(F)F)cc3)[C@@H](CC)C2)c(F)c1 [Compound I-1-42]	0.009	59
CCOc1ccc(N2CCN(c3ccc(CNC(=O)c4c(CC)nc5ccc(Cl)cn45)cc3F)C[C@@H]2C)cc1 [Compound I-1-44]	0.011	69
CCc1nc2ccc(Cl)cn2c1C(=O)NCc1ccc(N2CCN(c3ccc(OCC(F)(F)F)nc3)[C@@H](C)C2)c(F)c1 [Compound I-1-45]	0.011	64
Cc1nc2cc(F)ccn2c1C(=O)NCc1ccc(N2CCN(c3ccc(OC(F)(F)F)cc3)[C@@H](C)C2)c(F)c1 [Compound I-1-46]	0.0026	96
Cc1cc2nc(C)c(C(=O)NCc3ccc(N4CCN(c5ccc(OC(F)(F)F)cc5)[C@@H](C)C4)c(F)c3)n2cc1F [Compound I-1-47]	0.11	85
CCc1nc2cc(C)c(Cl)cn2c1C(=O)NCc1ccc(N2CCN(c3ccc(OC(F)(F)F)cc3)[C@@H](C)C2)c(F)c1 [Compound I-1-48]	0.035	69
CCc1nc2cc(C)c(F)cn2c1C(=O)NCc1ccc(N2CCN(c3ccc(OC(F)(F)F)cc3)[C@@H](C)C2)c(F)c1 [Compound I-1-49]	0.068	59
Cc1nc2ccc(C#N)cn2c1C(=O)NCc1ccc(N2CCN(c3ccc(OC(F)(F)F)cc3)[C@@H](C)C2)c(F)c1.Cl [Compound I-1-50]	0.5	94
Cc1nc2cc(Cl)ccn2c1C(=O)NCc1ccc(N2CCN(c3ccc(OC(F)(F)F)cc3)[C@@H](C)C2)c(F)c1.Cl [Compound I-1-51]	0.11	90
Cc1nc2ccccn2c1C(=O)NCc1ccc(N2CCN(c3ccc(OC(F)(F)F)cc3)[C@@H](C)C2)c(F)c1.Cl [Compound I-1-52]	0.0054	84
CCOc1ccc(N2CCN(c3ccc(CNC(=O)c4c(CC)nc5ccc(Cl)cn45)cc3F)C[C@@H]2C)cc1F.Cl [Compound I-1-53]	0.037	65
CCc1nc2ccc(Cl)cn2c1C(=O)NCc1ccc(N2CCN(c3ccc(OCC4CC4)cc3)[C@@H](C)C2)c(F)c1.Cl [Compound I-1-54]	0.034	79
CCOc1ccc(N2CCN(c3ccc(CNC(=O)c4c(CC)nc5ccc(Cl)cn45)cc3F)C[C@@H]2C)cc1OC.Cl [Compound I-1-55]	0.69	84
CCc1nc2ccc(Cl)cn2c1C(=O)NCc1ccc(N2CCN(c3ccc(OCC(C)(C)C)cc3)[C@@H](C)C2)c(F)c1.Cl [Compound I-1-56]	0.022	60
Cc1ccc2nc(Cl)c(C(=O)NCc3ccc(N4CCN(c5ccc(OC(F)(F)F)cc5)[C@@H](C)C4)c(F)c3)n2c1.Cl [Compound I-1-57]	0.0036	84
Cc1ccn2c(C(=O)NCc3ccc(N4CCC(c5ccc(OC(F)(F)F)cc5)[C@@H](C)C4)c(F)c3)c(Cl)nc2c1.Cl (some centres unmarked) [Compound I-1-58]	0.077	89

SMILES	IC85 [1] [µM]	MS_h_% (remaining amount of compound after reaction, 0 minute = 100%) [2] [%]
C[C@H]1CN(c2ccc(CNC(=O)c3c(Cl)nc4ccccn34)cc2F)CCN1c1ccc(OC(F)(F)F)cc1.Cl [Compound I-1-59]	0.011	87
Cc1nc2cc(Cl)ccn2c1C(=O)NCc1ccc(N2CC=C(c3ccc(OC(F)(F)F)cc3)CC2)c(F)c1.Cl [Compound I-1-60]	0.011	72
Cc1ccn2c(C(=O)NCc3ccc(N4CC=C(c5ccc(OC(F)(F)F)cc5)CC4)c(F)c3)c(C)nc2c1.Cl [Compound I-1-61]	0.2	95
CCc1nc2ccc(Cl)cn2c1C(=O)NCc1ccc(N2CCC(c3ccc(OC(F)(F)F)cc3)CC2)c(F)c1.Cl [Compound I-1-62]	0.0072	82
Cc1nc2ccc(Cl)cn2c1C(=O)NCc1ccc(N2CCC(c3ccc(OC(F)(F)F)cc3)CC2)c(F)c1.Cl [Compound I-1-63]	0.012	95
Cc1nc2ccc(F)cn2c1C(=O)NCc1ccc(N2CCC(c3ccc(OC(F)(F)F)cc3)CC2)c(F)c1.Cl [Compound I-1-64]	0.079	94
Cc1ccn2c(C(=O)NCc3ccc(N4CCC(c5ccc(OC(F)(F)F)cc5)CC4)c(F)c3)c(C)nc2c1.Cl [Compound I-1-65]	0.12	96
CCc1nc2ccc(Cl)cn2c1C(=O)NCc1cc(F)c(N2CCC(c3ccc(OC(F)(F)F)cc3)CC2)c(F)c1.Cl [Compound I-1-66]	0.011	83
Cc1ccn2c(C(=O)NCc3cc(F)c(N4CCC(c5ccc(OC(F)(F)F)cc5)CC4)c(F)c3)c(C)nc2c1.Cl [Compound I-1-67]	0.068	93
CCc1nc2cc(F)ccn2c1C(=O)NCc1ccc(N2CCC(c3ccc(OC(F)(F)F)cc3)CC2)c(F)c1.Cl [Compound I-1-68]	0.013	91
Cc1nc2cc(Cl)ccn2c1C(=O)NCc1ccc(N2CCC(c3ccc(OC(F)(F)F)cc3)CC2)c(F)c1.Cl [Compound I-1-69]	0.51	89
Cc1ccn2nc(C)c(C(=O)NCc3ccc(N4CCN(c5ccc(OC(F)(F)F)cc5)[C@@H](C)C4)c(F)c3)c2c1.Cl [Compound I-1-70]	0.025	84
Cc1ccn2nc(C)c(C(=O)NCc3ccc(N4CCN(c5ccc(OC(F)(F)F)cc5)[C@H](C)C4)c(F)c3)c2c1.Cl [Compound I-1-71]	0.1	78
Cc1ccn2nc(C)c(C(=O)NCc3ccc(C4CCN(c5ccc(OC(F)(F)F)cc5)CC4)c(F)c3)c2c1.Cl [Compound I-1-72]	0.066	87
CCOc1ccc(N2CCC(c3ccc(CNC(=O)c4c(CC)nc5ccc(Cl)cn45)cc3F)CC2)cc1.Cl [Compound I-1-73]	0.019	90
CCc1nc2ccc(Cl)cn2c1C(=O)NCc1ccc(C2CCN(c3ccc(OC4CC4)cc3)CC2)c(F)c1.Cl [Compound I-1-74]	0.039	64
CCc1nc2ccc(Cl)cn2c1C(=O)NCc1ccc(C2CCN(c3ccc(OCC4CC4)cc3)CC2)c(F)c1.Cl [Compound I-1-75]	0.016	71
CCc1nc2ccc(Cl)cn2c1C(=O)NCc1ccc(C2CCN(c3ccc(OCC4CC4)nc3)CC2)c(F)c1.Cl [Compound I-1-76]	0.046	80
CCc1nc2ccc(Cl)cn2c1C(=O)NCc1ccc(C2CCN(c3ccc(OCC4CC4)cn3)CC2)c(F)c1.Cl [Compound I-1-77]	0.022	59
CCCCOc1ccc(N2CCC(c3ccc(CNC(=O)c4c(CC)nc5ccc(Cl)cn45)cc3F)CC2)cc1.Cl [Compound I-1-78]	0.037	69
CCc1nc2ccc(Cl)cn2c1C(=O)NCc1ccc(C2CCN(c3ccc(OCC(C)C)cn3)CC2)c(F)c1.Cl [Compound I-1-79]	0.036	65
